Data as given in patent US20090311237A1, “Combination therapy using a soluble hyaluronidase and a bisphosphonate” (priority 2008, published 2009).
Like-named read-outs stand apart in the source and are kept apart here.

Assays:
[1] = IV infusion; cited from earlier work
Sprague Dawley rats [2] = assay: Semi-quantitative histopathology of skin at injection site after ID zoledronic acid with or without rHuPH20; type: in vivo; design: key: —: Dash indicates no incidence of the indicated observation; conditions: rat ID; ZA 0.4 mg/mL; rHuPH20 0 U/ml; 4 days
Procedure: (§1) Nine to ten week old female Sprague Dawley rats, having approximate body weight of 200-250 grams, were employed for the study. One day prior to injection, rats were shaved and hair on the back and flank area were removed by Nair® cream (exposure less than 1 min to depilation cream) followed by deep wash with warm tap water. On the day of dosing, all rats were injected intradermally in flank area (one or two injection spots per side), with 0.1 or 0.2 mL as indicated of zoledronic acid solution, with or without rHuPH20, at each corresponding concentration as shown in study design table. Injection site appearance was observed and quantified by blind assessment each day following the injection until the end of the study, at which time animals were sacrificed and the skin around the dosing area as well as a part of the skin that was not effected by the dosing were collected and fixed in 10% neutral buffered formalin (NBF) and further embedded in paraffin, 5 μm sections were cut for H&E stain and histopathology evaluation.
(§2) Lesion area was calculated by the following formula: W×L×¼π. Quantitative results were analyzed using one-way analysis of variance (ANOVA) method, followed by Dunnett's comparison method (Prizm 4 program). […] Histopathologic findings were characterized by semi-quantitative analysis of necrosis and infiltration in the skin tissue. […]

[3] = cited from earlier work; for IV MRT: IV […] infusion, calculated from published ZA PK data
[4] = Urinary excretion of unchanged ZA in pigs; type: in vivo, pig; conditions: for Dose Amt 2 hr, Mean / Dose Amt 2 hr, Median: n 4; for mean percent of dose excreted unchanged in urine: pig, first 2 hours post dose
Procedure: Following ZA dose administration, serial blood samples were collected via vascular access ports (VAPs) for serum preparation and determination of ZA concentrations. […] Urine samples were also collected to compare excretion characteristics between IV and SC routes of administration.
Serum concentration of ZA was determined using a qualified LC-MS-MS assay after derivatization with diazomethane (Zhu, L S et al. (2006) Rapid Commun. Mass Spectrom. 20: 3421-3426; “Qualification Data of An LC-MS/MS Method for the Determination of Zoledronate in Porcine Serum”, MDS Pharma Services Study No. AA43671-01, Report Date 14 Sep. 2007). The assay range was from 2.0 to 400 ng/mL with a lower limit of quantitation (LLOQ) at 2.0 ng/mL. Urine concentration of ZA was determined by a similar well qualified LC-MS-MS method (“Qualification Data of An LC-MS/MS Method for the Determination of Zoledronate in Porcine Urine”, MDS Pharma Services Study No. AA43671-02, Report Date 14 Sep. 2007) with an assay LLOQ at 10 ng/mL.
Amount of ZA excreted unchanged in urine was determined for the collection interval from dosing to 2-hour post dose and compared between dose routes and co-administration with rHuPH20.
Urine sample volumes and concentration of ZA in the samples were used to calculate the amount of unchanged ZA excreted via the kidneys. Since continuous collection was halted at 2 hours post dose, the percent of administered ZA dose that were renally excreted was not determined. However, the percent of dose excreted within the 2-hour collection interval was estimated with the relationship that the systemically available SC ZA dose is equal to: […]

Sprague Dawley rats [5] = assay: Semi-quantitative histopathology of skin at injection site after ID zoledronic acid with or without rHuPH20; type: in vivo; design: key: —: Dash indicates no incidence of indicated finding; conditions: rat ID, 4 days
Procedure: as §1, §2

[6] = Study Group 1, IV infusion, ZA […], dosing to 2 h post dose, n 3
[7] = Study Group 2, SC, […] dose only
[8] = Study Group 2, SC, n 5, dosing to 2 h post dose
[9] = Study Group 3, SC with rHuPH20, […] dose only
[10] = Study Group 3, SC with rHuPH20, n 4, dosing to 2 h post dose

Compound: O=P(O)(O)C(O)(Cn1ccnc1)P(=O)(O)O [ZA, 1-hydroxy-2-(1H-imidazol-1-yl)ethylidene-1,1-bisphosphonic acid]
- patients with skin irritation at the injection site [1]: 1%
- Necrosis: Superficial dermis (Sprague Dawley rats [2]): —
- IV MRT ([3]; adjusted to match SC dose 0.25 mg): 1.9010 h
- IV MRT ([3]; adjusted to match SC dose 0.5 mg): 2.2330 h
- IV MRT ([3]; adjusted to match SC dose 1 mg): 5.2494 h
- IV MRT ([3]; adjusted to match SC dose 5 mg): 9.1957 h
- terminal γ phase half-life (T½γ) ([3]; man, IV): ~146 h
- Dose Excreted, Mean [4, 6]: 11.40%
- Dose Excreted, Median [4, 6]: 10.71%
- Dose Amt 2 hr, Mean [4, 7]: 2.87 mg
- Dose Amt 2 hr, Median [4, 7]: 2.88 mg
- Dose Excreted, Mean [4, 8]: 9.45%
- Dose Excreted, Median [4, 8]: 6.73%
- Dose Amt 2 hr, Mean [4, 9]: 3.00 mg
- Dose Amt 2 hr, Median [4, 9]: 3.03 mg
- Dose Excreted, Mean [4, 10]: 10.66%
- Dose Excreted, Median [4, 10]: 12.04%
- Dose Amt 2 hr (SC AUC(0-2 h) × CL × body weight) ([4]; pig 56, Study Group 3, SC with rHuPH20, ZA […]): 3.06 mg
- Dose Excreted (unchanged in urine) ([4]; pig 57, Study Group 1, IV infusion, ZA […], dosing to 2 h post dose): 13.23%
- Dose Amt 2 hr (SC AUC(0-2 h) × CL × body weight) ([4]; pig 58, Study Group 3, SC with rHuPH20, ZA […]): 3.03 mg
- Dose Excreted (unchanged in urine) ([4]; pig 58, Study Group 3, SC with rHuPH20, ZA […], dosing to 2 h post dose): 0.41%
- Dose Amt 2 hr (SC AUC(0-2 h) × CL × body weight) ([4]; pig 59, Study Group 2, SC, ZA […]): 1.44 mg
- Dose Excreted (unchanged in urine) ([4]; pig 59, Study Group 2, SC, ZA […], dosing to 2 h post dose): 5.10%
- Dose Amt 2 hr (SC AUC(0-2 h) × CL × body weight) ([4]; pig 60, Study Group 2, SC, ZA […]): 3.28 mg
- Dose Excreted (unchanged in urine) ([4]; pig 60, Study Group 2, SC, ZA […], dosing to 2 h post dose): 6.73%
- Dose Excreted (unchanged in urine) ([4]; pig 61, Study Group 1, IV infusion, ZA […], dosing to 2 h post dose): 10.71%
- Dose Amt 2 hr (SC AUC(0-2 h) × CL × body weight) ([4]; pig 62, Study Group 2, SC, ZA […]): 2.42 mg
- Dose Excreted (unchanged in urine) ([4]; pig 62, Study Group 2, SC, ZA […], dosing to 2 h post dose): 20.08%
- Dose Amt 2 hr (SC AUC(0-2 h) × CL × body weight) ([4]; pig 64, Study Group 3, SC with rHuPH20, ZA […]): 2.86 mg
- Dose Excreted (unchanged in urine) ([4]; pig 64, Study Group 3, SC with rHuPH20, ZA […], dosing to 2 h post dose): 12.29%
- Dose Amt 2 hr (SC AUC(0-2 h) × CL × body weight) ([4]; pig 66, Study Group 3, SC with rHuPH20, ZA […]): 1.22 mg
- Dose Excreted (unchanged in urine) ([4]; pig 66, Study Group 3, SC with rHuPH20, ZA […], dosing to 2 h post dose): 18.13%
- Dose Excreted (unchanged in urine) ([4]; pig 67, Study Group 1, IV infusion, ZA […], dosing to 2 h post dose): 10.25%
- Dose Amt 2 hr (SC AUC(0-2 h) × CL × body weight) ([4]; pig 68, Study Group 3, SC with rHuPH20, ZA […]): 3.03 mg
- Dose Excreted (unchanged in urine) ([4]; pig 68, Study Group 3, SC with rHuPH20, ZA […], dosing to 2 h post dose): 11.79%
- Dose Amt 2 hr (SC AUC(0-2 h) × CL × body weight) ([4]; pig 69, Study Group 2, SC, ZA […]): 2.83 mg
- Dose Excreted (unchanged in urine) ([4]; pig 69, Study Group 2, SC, ZA […], dosing to 2 h post dose): 10.19%
- Dose Amt 2 hr (SC AUC(0-2 h) × CL × body weight) ([4]; pig 70, Study Group 2, SC, ZA […]): 2.93 mg
- Dose Excreted (unchanged in urine) ([4]; pig 70, Study Group 2, SC, ZA […], dosing to 2 h post dose): 5.17%
- mean percent of dose excreted unchanged in urine ([4]; Study Group 1 (IV […])): 11.40%
- mean percent of dose excreted unchanged in urine ([4]; Study Group 2 (SC ZA without rHuPH20)): 9.45%
- Necrosis: Superficial dermis (Sprague Dawley rats [5]; ZA alone 0.05 mg/mL): —
- Necrosis: Superficial dermis (Sprague Dawley rats [5]; ZA alone 0.1 mg/mL): —
